{"source": "patent US20090270371A1", "about": "“QUINOLINE DERIVATIVES USEFUL IN THE TREATMENT OF MGLUR5 RECEPTOR-MEDIATED DISORDERS” (priority 2005, published 2009)", "data": [{"molecular_target": "T1, rat mGluR5 receptors (Rattus norvegicus, UniProt P31424)", "T1 construct": "rat cerebro-cortical membrane preparation was used; from tissue; host or cells: rat cerebral cortex membranes", "T1 sequence (P31424 21-1203)": "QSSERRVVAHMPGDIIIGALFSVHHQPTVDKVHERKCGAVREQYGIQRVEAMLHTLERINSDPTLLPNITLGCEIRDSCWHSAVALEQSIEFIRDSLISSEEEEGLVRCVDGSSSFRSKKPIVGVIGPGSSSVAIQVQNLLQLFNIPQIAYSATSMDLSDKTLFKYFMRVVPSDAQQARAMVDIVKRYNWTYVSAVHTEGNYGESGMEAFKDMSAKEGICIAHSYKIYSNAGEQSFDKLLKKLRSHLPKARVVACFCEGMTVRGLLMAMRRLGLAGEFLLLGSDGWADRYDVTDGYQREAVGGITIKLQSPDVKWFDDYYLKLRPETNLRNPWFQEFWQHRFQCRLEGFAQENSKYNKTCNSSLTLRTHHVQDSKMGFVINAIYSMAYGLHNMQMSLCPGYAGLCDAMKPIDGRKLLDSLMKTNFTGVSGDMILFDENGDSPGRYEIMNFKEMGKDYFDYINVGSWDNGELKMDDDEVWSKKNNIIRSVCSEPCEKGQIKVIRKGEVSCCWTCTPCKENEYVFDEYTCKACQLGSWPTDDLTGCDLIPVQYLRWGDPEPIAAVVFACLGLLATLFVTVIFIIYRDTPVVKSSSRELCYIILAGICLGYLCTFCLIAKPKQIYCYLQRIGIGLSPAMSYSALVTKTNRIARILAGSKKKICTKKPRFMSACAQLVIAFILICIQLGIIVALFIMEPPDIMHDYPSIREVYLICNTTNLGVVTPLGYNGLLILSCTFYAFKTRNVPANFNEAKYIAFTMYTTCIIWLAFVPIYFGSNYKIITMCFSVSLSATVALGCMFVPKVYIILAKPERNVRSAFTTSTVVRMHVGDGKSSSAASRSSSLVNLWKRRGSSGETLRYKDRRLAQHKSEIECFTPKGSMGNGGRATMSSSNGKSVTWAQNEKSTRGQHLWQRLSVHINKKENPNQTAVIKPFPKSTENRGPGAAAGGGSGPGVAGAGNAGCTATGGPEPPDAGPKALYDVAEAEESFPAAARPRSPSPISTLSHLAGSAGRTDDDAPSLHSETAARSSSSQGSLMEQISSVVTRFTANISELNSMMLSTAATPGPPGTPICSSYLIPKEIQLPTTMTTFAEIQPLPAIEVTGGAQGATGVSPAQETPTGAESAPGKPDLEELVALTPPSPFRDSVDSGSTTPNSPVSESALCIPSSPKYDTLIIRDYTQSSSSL", "experiment": "mGluR5 receptor binding test, rat cerebro-cortical membrane preparation, [3H]-M-MPEP", "conditions": "affinity for rat mGluR5 receptors; [3H]-M-MPEP (2 nM) radioligand", "experimental": "The mGluR5 receptor binding was determined according to the modified method of Gasparini et. al. (Bioorg. Med. Chem. Lett., 2000, 12, 407). Based on the high homology between the human and rat mGluR5 receptors, rat cerebro-cortical membrane preparation was used to determine the binding characteristics of the reference compounds and novel compounds to the rat mGluR5. The A18 cell line expressing hmGluR5a (purchased from Euroscreen) was used to determine binding characteristics of the chemical compounds to the human mGluR5a receptor. [^3H]-M-MPEP (2 nM) was used as radioligand. The nonspecific binding was determined in the presence of 10 μM M-MPEP.", "units": {"Ki": "nM"}, "values": [{"smiles": "CCN1CCN(c2c(S(=O)(=O)c3ccc(F)cc3)cnc3ccc(Cl)cc23)CC1", "note": "[Compound 10]", "Ki": "> 500"}, {"smiles": "COc1ccc2ncc(S(=O)(=O)c3ccc(F)cc3)c(N3CCC(C)CC3)c2c1", "note": "[Compound 241]", "Ki": "> 500"}, {"smiles": "CC1CCN(c2c(S(=O)(=O)c3ccc(Cl)cc3)cnc3cc(F)ccc23)CC1", "note": "[Compound 174]", "Ki": "< 200"}, {"smiles": "Cc1ccc2ncc(S(=O)(=O)c3ccc(Cl)cc3)c(N3CCC(C)CC3)c2c1", "note": "[Compound 158]", "Ki": "200 to 500"}, {"smiles": "CC1CCN(c2c(S(=O)(=O)c3cccc(Cl)c3)cnc3ccc(Cl)cc23)CC1", "note": "[Compound 216]", "Ki": "> 500"}, {"smiles": "O=S(=O)(c1ccccc1)c1cnc2ccc(Cl)cc2c1N1CCCC1", "note": "[Compound 37]", "Ki": "> 500"}, {"smiles": "Cc1ccc(S(=O)(=O)c2cnc3ccc(Cl)cc3c2N2CCC(C)CC2)cc1", "note": "[Compound 211]", "Ki": "< 200"}, {"smiles": "CCc1ccc2ncc(S(=O)(=O)c3ccc(OC)cc3)c(N(CC)CC)c2c1", "note": "[Compound 12]", "Ki": "> 500"}, {"smiles": "CC1CCN(c2c(S(=O)(=O)c3cccc(Cl)c3)cnc3cc(Cl)ccc23)CC1", "note": "[Compound 201]", "Ki": "< 200"}, {"smiles": "Cc1ccc(S(=O)(=O)c2cnc3ccc(C)cc3c2N2CCOCC2)cc1", "note": "[Compound 104]", "Ki": "> 500"}, {"smiles": "CC1CCN(c2c(S(=O)(=O)c3cccc(C#N)c3)cnc3cc(F)ccc23)CC1", "note": "[Compound 179]", "Ki": "< 200"}, {"smiles": "CC1CCN(c2c(S(=O)(=O)c3ccccc3)cnc3cc(Cl)ccc23)CC1", "note": "[Compound 194]", "Ki": "< 200"}, {"smiles": "COc1ccc2ncc(S(=O)(=O)c3ccc(Cl)cc3)c(NCc3ccccc3)c2c1", "note": "[Compound 78]", "Ki": "> 500"}, {"smiles": "COc1ccc2ncc(S(=O)(=O)c3ccc(OC)c(Cl)c3)c(N3CCC(C)CC3)c2c1", "note": "[Compound 245]", "Ki": "> 500"}, {"smiles": "Cc1cc(C)cc(S(=O)(=O)c2cnc3cc(F)ccc3c2N2CCOCC2)c1", "note": "[Compound 317]", "Ki": "200 to 500"}, {"smiles": "O=S(=O)(c1ccc(Cl)c(Cl)c1)c1cnc2ccc(F)cc2c1N1CCOCC1", "note": "[Compound 286]", "Ki": "200 to 500"}, {"smiles": "O=S(=O)(c1cccc(F)c1)c1cnc2c(F)cccc2c1N1CCOCC1", "note": "[Compound 340]", "Ki": "> 500"}, {"smiles": "CC1CCN(c2c(S(=O)(=O)c3ccc(Cl)c(Cl)c3)cnc3cc(Cl)ccc23)CC1", "note": "[Compound 202]", "Ki": "< 200"}, {"smiles": "Cc1ccc2ncc(S(=O)(=O)c3cccc(Cl)c3)c(N3CCC(C)CC3)c2c1", "note": "[Compound 163]", "Ki": "< 200"}, {"smiles": "CC1CCN(c2c(S(=O)(=O)c3ccc(F)cc3)cnc3ccc(C#N)cc23)CC1", "note": "[Compound 252]", "Ki": "200 to 500"}, {"smiles": "O=S(=O)(c1ccccc1)c1cnc2ccccc2c1Nc1ccccc1", "note": "[Compound 20]", "Ki": "> 500"}, {"smiles": "Cc1ccc2ncc(S(=O)(=O)c3ccc(F)c(F)c3)c(N3CCOCC3)c2c1", "note": "[Compound 268]", "Ki": "> 500"}, {"smiles": "Cc1ccc2ncc(S(=O)(=O)c3ccc(C)c(C)c3)c(N3CCC(C)CC3)c2c1", "note": "[Compound 161]", "Ki": "< 200"}, {"smiles": "CCOC(=O)C1CCN(c2c(S(=O)(=O)c3ccc(Cl)cc3)cnc3ccc(CC)cc23)CC1", "note": "[Compound 53]", "Ki": "< 200"}, {"smiles": "CCOC(=O)C1CCCN(c2c(S(=O)(=O)c3ccccc3)cnc3ccc(CC)cc23)C1", "note": "(stereo not shown) [Compound 57]", "Ki": "> 500"}, {"smiles": "O=S(=O)(c1ccc(Cl)cc1)c1cnc2c(F)cccc2c1N1CCOCC1", "note": "[Compound 339]", "Ki": "200 to 500"}, {"smiles": "CCOC(=O)C1CCN(c2c(S(=O)(=O)c3ccccc3)cnc3ccc(CC)cc23)CC1", "note": "[Compound 81]", "Ki": "> 500"}, {"smiles": "CCc1ccc2ncc(S(=O)(=O)c3ccccc3)c(N3CCN(Cc4ccccc4)CC3)c2c1", "note": "[Compound 66]", "Ki": "> 500"}, {"smiles": "Cc1ccc2ncc(S(=O)(=O)c3ccc(Cl)c(Cl)c3)c(N3CCOCC3)c2c1", "note": "[Compound 262]", "Ki": "200 to 500"}, {"smiles": "O=S(=O)(c1ccccc1)c1cnc2ccccc2c1N1CCCCC1", "note": "[Compound 5]", "Ki": "200 to 500"}, {"smiles": "COc1ccc(S(=O)(=O)c2cnc3ccc(F)cc3c2N2CCOCC2)cc1", "note": "[Compound 282]", "Ki": "> 500"}, {"smiles": "COc1cccc(S(=O)(=O)c2cnc3ccc(C)cc3c2N2CCOCC2)c1", "note": "[Compound 260]", "Ki": "200 to 500"}, {"smiles": "O=S(=O)(c1cccc(Cl)c1)c1cnc2ccc(Cl)cc2c1N1CCOCC1", "note": "[Compound 297]", "Ki": "> 500"}, {"smiles": "CC1CCN(c2c(S(=O)(=O)c3cccc(F)c3)cnc3cc(Cl)ccc23)CC1", "note": "[Compound 197]", "Ki": "< 200"}, {"smiles": "Cc1ccc(Nc2c(S(=O)(=O)c3ccc(Cl)cc3)cnc3ccccc23)cc1C", "note": "[Compound 22]", "Ki": "> 500"}, {"smiles": "CC1CCN(c2c(S(=O)(=O)c3ccc(C#N)cc3)cnc3cc(F)ccc23)CC1", "note": "[Compound 180]", "Ki": "< 200"}, {"smiles": "CCc1ccc2ncc(S(=O)(=O)c3ccc(C)cc3)c(N3CCCCC3)c2c1", "note": "[Compound 96]", "Ki": "> 500"}, {"smiles": "O=S(=O)(c1ccccc1)c1cnc2ccccc2c1N1CCN(c2cccc(Cl)c2)CC1", "note": "[Compound 71]", "Ki": "> 500"}, {"smiles": "CC1CCN(c2c(S(=O)(=O)c3ccc(C#N)cc3)cnc3ccc(F)cc23)CC1", "note": "[Compound 150]", "Ki": "200 to 500"}, {"smiles": "COc1ccc(S(=O)(=O)c2cnc3cc(F)ccc3c2N2CCC(C)CC2)cc1OC", "note": "[Compound 182]", "Ki": "< 200"}, {"smiles": "N#Cc1ccc2ncc(S(=O)(=O)c3ccc(F)cc3)c(N3CCOCC3)c2c1", "note": "[Compound 346]", "Ki": "200 to 500"}, {"smiles": "O=S(=O)(c1ccccc1)c1cnc2ccc(Cl)cc2c1N1CCOCC1", "note": "[Compound 291]", "Ki": "> 500"}, {"smiles": "CC1CCN(c2c(S(=O)(=O)c3cccc(C#N)c3)cnc3cc(Cl)ccc23)CC1", "note": "[Compound 190]", "Ki": "< 200"}, {"smiles": "Cc1ccc(S(=O)(=O)c2cnc3ccccc3c2N2CCCCCC2)cc1", "note": "[Compound 32]", "Ki": "< 200"}, {"smiles": "Cc1ccc(Nc2c(S(=O)(=O)c3ccc(C)cc3)cnc3ccccc23)cc1", "note": "[Compound 21]", "Ki": "> 500"}, {"smiles": "CC1CCN(c2c(S(=O)(=O)c3ccc(F)c(F)c3)cnc3cc(F)ccc23)CC1", "note": "[Compound 186]", "Ki": "< 200"}, {"smiles": "Cc1ccc(S(=O)(=O)c2cnc3ccccc3c2Nc2ccc3c(c2)OCCO3)cc1", "note": "[Compound 27]", "Ki": "> 500"}, {"smiles": "O=S(=O)(c1cc(F)cc(F)c1)c1cnc2ccc(Cl)cc2c1N1CCOCC1", "note": "[Compound 294]", "Ki": "> 500"}, {"smiles": "CCc1ccc2ncc(S(=O)(=O)c3ccccc3)c(N3CCCCC3)c2c1", "note": "[Compound 45]", "Ki": "> 500"}, {"smiles": "CCN(CC)c1c(S(=O)(=O)c2ccc(Cl)cc2)cnc2cc3c(cc12)OCCO3", "note": "[Compound 18]", "Ki": "> 500"}, {"smiles": "COc1ccc(S(=O)(=O)c2cnc3ccc(C)cc3c2N2CCOCC2)cc1Cl", "note": "[Compound 261]", "Ki": "200 to 500"}, {"smiles": "COc1ccc(S(=O)(=O)c2cnc3cc(F)ccc3c2N2CCOCC2)cc1Cl", "note": "[Compound 307]", "Ki": "200 to 500"}, {"smiles": "O=S(=O)(c1ccc(Cl)cc1)c1cnc2ccccc2c1N1CCOCC1", "note": "[Compound 40]", "Ki": "> 500"}, {"smiles": "COc1ccc(S(=O)(=O)c2cnc3ccc(Cl)cc3c2NCc2ccccc2)cc1", "note": "[Compound 11]", "Ki": "> 500"}, {"smiles": "COc1ccc(S(=O)(=O)c2cnc3ccc(F)cc3c2N2CCC(C)CC2)cc1Cl", "note": "[Compound 147]", "Ki": "< 200"}, {"smiles": "Cc1ccc(S(=O)(=O)c2cnc3cc(Cl)ccc3c2N2CCC(C)CC2)cc1C", "note": "[Compound 199]", "Ki": "< 200"}, {"smiles": "COc1ccc2ncc(S(=O)(=O)c3cc(F)cc(F)c3)c(N3CCC(C)CC3)c2c1", "note": "[Compound 240]", "Ki": "> 500"}, {"smiles": "Cc1ccc(S(=O)(=O)c2cnc3ccc(C)cc3c2N2CCN(Cc3ccccc3)CC2)cc1", "note": "[Compound 65]", "Ki": "> 500"}, {"smiles": "Cc1ccc(S(=O)(=O)c2cnc3ccc(C)cc3c2N2CCC(C)CC2)cc1", "note": "[Compound 46]", "Ki": "< 200"}, {"smiles": "COc1ccc(S(=O)(=O)c2cnc3ccc(Cl)cc3c2N2CCC(C)CC2)cc1Cl", "note": "[Compound 221]", "Ki": "> 500"}, {"smiles": "CC1CCN(c2c(S(=O)(=O)c3ccc(F)cc3)cnc3c(F)cccc23)CC1", "note": "[Compound 228]", "Ki": "> 500"}, {"smiles": "CC1CCN(c2c(S(=O)(=O)c3ccc(Cl)c(Cl)c3)cnc3ccc(F)cc23)CC1", "note": "[Compound 149]", "Ki": "< 200"}, {"smiles": "CC1CCN(c2c(S(=O)(=O)c3ccc(F)cc3)cnc3ccc(Cl)cc23)CC1", "note": "[Compound 212]", "Ki": "< 200"}, {"smiles": "CC1CCN(c2c(S(=O)(=O)c3cc(F)cc(F)c3)cnc3cc(Cl)ccc23)CC1", "note": "[Compound 189]", "Ki": "< 200"}, {"smiles": "Cc1cc(C)cc(S(=O)(=O)c2cnc3ccc(F)cc3c2N2CCOCC2)c1", "note": "[Compound 289]", "Ki": "> 500"}, {"smiles": "CCc1ccc2ncc(S(=O)(=O)c3ccc(C)cc3)c(NCc3ccccc3)c2c1", "note": "[Compound 85]", "Ki": "> 500"}, {"smiles": "CC1CCN(c2c(S(=O)(=O)c3cccc(F)c3)cnc3ccc(Cl)cc23)CC1", "note": "[Compound 214]", "Ki": "200 to 500"}, {"smiles": "CCOC(=O)C1CCN(c2c(S(=O)(=O)c3ccc(C)cc3)cnc3ccccc23)CC1", "note": "[Compound 54]", "Ki": "> 500"}, {"smiles": "Cc1ccc(S(=O)(=O)c2cnc3c(F)cccc3c2N2CCC(C)CC2)cc1F", "note": "[Compound 233]", "Ki": "< 200"}, {"smiles": "O=S(=O)(c1ccc(Cl)c(Cl)c1)c1cnc2ccc(Cl)cc2c1N1CCOCC1", "note": "[Compound 298]", "Ki": "200 to 500"}, {"smiles": "Cc1ccc(S(=O)(=O)c2cnc3cc(Cl)ccc3c2N2CCC(C)CC2)cc1F", "note": "[Compound 203]", "Ki": "< 200"}, {"smiles": "O=S(=O)(c1ccccc1)c1cnc2ccccc2c1N1CCC2(CC1)OCCO2", "note": "[Compound 60]", "Ki": "> 500"}, {"smiles": "CC1CCN(c2c(S(=O)(=O)c3ccc(Cl)cc3)cnc3ccc(F)cc23)CC1", "note": "[Compound 137]", "Ki": "< 200"}, {"smiles": "Cc1ccc(S(=O)(=O)c2cnc3ccc(F)cc3c2N2CCCCCC2)cc1", "note": "[Compound 33]", "Ki": "> 500"}, {"smiles": "Cc1ccc(S(=O)(=O)c2cnc3ccc(Cl)cc3c2N2CCOCC2)cc1C", "note": "[Compound 38]", "Ki": "> 500"}, {"smiles": "Cc1ccc(S(=O)(=O)c2cnc3ccccc3c2N2CCCCC2)cc1", "note": "[Compound 6]", "Ki": "< 200"}, {"smiles": "CC1CCN(c2c(S(=O)(=O)c3ccc(Cl)cc3)cnc3cc(Cl)ccc23)CC1", "note": "[Compound 195, 7-Chloro-3-(4-chloro-benzenesulfonyl)-4-(4-methyl-piperidin-1-yl)-quinoline]", "Ki": "< 200"}, {"smiles": "Cc1ccc(S(=O)(=O)c2cnc3ccccc3c2Nc2ccc(F)cc2)cc1", "note": "[Compound 25]", "Ki": "> 500"}, {"smiles": "COc1ccc2ncc(S(=O)(=O)c3cc(Cl)cc(Cl)c3)c(N3CCOCC3)c2c1", "note": "[Compound 271]", "Ki": "> 500"}]}]}
